# Measured values: patent US9139523B2, “5-HT2B receptor antagonists” (Janssen Pharmaceutica, NV, priority 2010, dated 2015)
# System: anesthetized guinea-pig
# Test: Cardiovascular effects in the anaesthetized guinea-pig
# Assay type: in vivo
# Protocol: Female guinea-pigs were anesthetized with sodium pentobarbital (66 mg/kg i.p.) followed by a continuous i.v. infusion of 6 mg/h of sodium pentobarbital and prepared for measurements of the surface electrocardiogram (ECG), heart rate and mean arterial blood pressure (see De Clerck et al, Fundam. Clin. Pharm.; 2002; 16: 125-140). Compound (−)-17 was dissolved in 20% hydroxypropyl-cyclodextrin with NaOH, HCl and mannitol in pyrogen-free water and administered intravenously (0.5 ml/kg) in increasing doses (0.16, 0.32, 0.64, 1.25, 2.5 and 5 mg/kg) over a period of 5 min at 15-min intervals. Plasma concentrations of Compound (−)-17 were measured at the end of each infusion. Corresponding volumes of vehicle were administered according to the same protocol in a second group of animals.
# [1] = guinea pig i.v. 0.64 mg/kg @ 15′
# [2] = guinea pig i.v. 1.25 mg/kg @ 2′
# [3] = guinea pig i.v. 1.25 mg/kg @ 5′
# [4] = guinea pig i.v. 1.25 mg/kg @ 15′
# [5] = guinea pig i.v. 2.5 mg/kg @ 15′
smiles,measurement,setting,value
"COc1cc(N)c(Cl)cc1C(=O)NC1CCN(CCCOc2ccc(F)cc2)CC1(F)F (single isomer, unassigned) [Compound (−)-17, 4-amino-5-chloro-N-{3,3-difluoro-1-[3-(4-fluorophenoxy)-propyl]-piperidin-4-yl}-2-methoxybenzamide]","HR, percentage change relative to baseline",[1],−5%
same,"MBP, percentage change relative to baseline",[1],−5%
same,"PQ, percentage change relative to baseline",[1],4%
same,"QRS, percentage change relative to baseline",[1],−3%
same,"QT, percentage change relative to baseline",[1],8%
same,"QTc B, percentage change relative to baseline",[1],4%
same,"HR, percentage change relative to baseline",[2],−7%
same,"MBP, percentage change relative to baseline",[2],4%
same,"PQ, percentage change relative to baseline",[2],5%
same,"QRS, percentage change relative to baseline",[2],−2%
same,"QT, percentage change relative to baseline",[2],8%
same,"QTc B, percentage change relative to baseline",[2],4%
same,"HR, percentage change relative to baseline",[3],−7%
same,"MBP, percentage change relative to baseline",[3],15%
same,"PQ, percentage change relative to baseline",[3],6%
same,"QRS, percentage change relative to baseline",[3],0%
same,"QT, percentage change relative to baseline",[3],6%
same,"QTc B, percentage change relative to baseline",[3],2%
same,"HR, percentage change relative to baseline",[4],0%
same,"MBP, percentage change relative to baseline",[4],9%
same,"PQ, percentage change relative to baseline",[4],6%
same,"QRS, percentage change relative to baseline",[4],−3%
same,"QT, percentage change relative to baseline",[4],2%
same,"QTc B, percentage change relative to baseline",[4],3%
same,"HR, percentage change relative to baseline",guinea pig i.v. 2.5 mg/kg @ 2′,−5%
same,"PQ, percentage change relative to baseline",guinea pig i.v. 2.5 mg/kg @ 2′,7%
same,"QRS, percentage change relative to baseline",guinea pig i.v. 2.5 mg/kg @ 2′,−3%
same,"QT, percentage change relative to baseline",guinea pig i.v. 2.5 mg/kg @ 2′,6%
same,"QTc B, percentage change relative to baseline",guinea pig i.v. 2.5 mg/kg @ 2′,4%
same,"HR, percentage change relative to baseline",guinea pig i.v. 2.5 mg/kg @ 5′,−6%
same,"MBP, percentage change relative to baseline",guinea pig i.v. 2.5 mg/kg @ 5′,21%
same,"PQ, percentage change relative to baseline",guinea pig i.v. 2.5 mg/kg @ 5′,7%
same,"QRS, percentage change relative to baseline",guinea pig i.v. 2.5 mg/kg @ 5′,−3%
same,"QT, percentage change relative to baseline",guinea pig i.v. 2.5 mg/kg @ 5′,6%
same,"QTc B, percentage change relative to baseline",guinea pig i.v. 2.5 mg/kg @ 5′,3%
same,"HR, percentage change relative to baseline",[5],−4%
same,"MBP, percentage change relative to baseline",[5],8%
same,"PQ, percentage change relative to baseline",[5],8%
same,"QRS, percentage change relative to baseline",[5],0%
same,"QT, percentage change relative to baseline",[5],6%
same,"QTc B, percentage change relative to baseline",[5],5%
same,"HR, percentage change relative to baseline",guinea pig i.v. 5 mg/kg @ 2′,−3%
same,"PQ, percentage change relative to baseline",guinea pig i.v. 5 mg/kg @ 2′,6%
same,"QRS, percentage change relative to baseline",guinea pig i.v. 5 mg/kg @ 2′,−2%
same,"QT, percentage change relative to baseline",guinea pig i.v. 5 mg/kg @ 2′,7%
same,"QTc B, percentage change relative to baseline",guinea pig i.v. 5 mg/kg @ 2′,5%
same,"HR, percentage change relative to baseline",guinea pig i.v. 5 mg/kg @ 5′,−3%
same,"PQ, percentage change relative to baseline",guinea pig i.v. 5 mg/kg @ 5′,6%
same,"QRS, percentage change relative to baseline",guinea pig i.v. 5 mg/kg @ 5′,0%
same,"QT, percentage change relative to baseline",guinea pig i.v. 5 mg/kg @ 5′,3%
same,"QTc B, percentage change relative to baseline",guinea pig i.v. 5 mg/kg @ 5′,2%
same,"effect on heart rate, duration of PQ, QRS, QT and QTcB intervals, ECG morphology","guinea pig, 0.16 up to 5 mg/kg i.v., relative to vehicle",no relevant effect
same,mean arterial blood pressure,"guinea pig, from 2.5 mg/kg i.v. onwards",started to increase
